Measured values taken from PMC11489721 (Communications Chemistry, 2024).

Assays:
[1] = biological target: T1, heterodimeric receptor (T1R2/T1R3) (Homo sapiens, UniProt Q7RTX0+Q8TE23); test: Competition binding with [14C]-sucrose as radioligand
T1 sequence (Q8TE23 20-839): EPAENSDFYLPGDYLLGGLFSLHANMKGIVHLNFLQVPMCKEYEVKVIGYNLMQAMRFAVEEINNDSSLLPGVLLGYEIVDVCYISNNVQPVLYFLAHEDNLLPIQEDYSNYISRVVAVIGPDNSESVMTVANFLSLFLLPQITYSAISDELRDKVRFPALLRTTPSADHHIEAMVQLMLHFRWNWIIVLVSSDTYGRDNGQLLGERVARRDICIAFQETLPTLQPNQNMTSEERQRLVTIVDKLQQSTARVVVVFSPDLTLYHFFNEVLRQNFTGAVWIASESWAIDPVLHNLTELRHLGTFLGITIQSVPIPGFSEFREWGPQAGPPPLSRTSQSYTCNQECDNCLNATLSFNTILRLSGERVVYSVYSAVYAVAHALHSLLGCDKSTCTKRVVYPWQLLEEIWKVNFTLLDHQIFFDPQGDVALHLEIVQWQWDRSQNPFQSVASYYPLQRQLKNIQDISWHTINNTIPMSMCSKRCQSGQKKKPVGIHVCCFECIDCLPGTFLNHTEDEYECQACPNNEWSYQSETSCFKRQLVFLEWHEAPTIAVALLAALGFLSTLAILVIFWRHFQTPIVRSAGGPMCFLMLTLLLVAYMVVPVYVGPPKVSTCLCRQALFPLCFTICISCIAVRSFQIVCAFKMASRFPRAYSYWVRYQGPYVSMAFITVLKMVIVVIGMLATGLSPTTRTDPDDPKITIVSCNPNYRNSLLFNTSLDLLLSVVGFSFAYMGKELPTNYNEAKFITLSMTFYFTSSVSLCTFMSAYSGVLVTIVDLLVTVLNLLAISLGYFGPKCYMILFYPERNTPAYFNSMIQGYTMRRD
T1 sequence (Q7RTX0 21-852): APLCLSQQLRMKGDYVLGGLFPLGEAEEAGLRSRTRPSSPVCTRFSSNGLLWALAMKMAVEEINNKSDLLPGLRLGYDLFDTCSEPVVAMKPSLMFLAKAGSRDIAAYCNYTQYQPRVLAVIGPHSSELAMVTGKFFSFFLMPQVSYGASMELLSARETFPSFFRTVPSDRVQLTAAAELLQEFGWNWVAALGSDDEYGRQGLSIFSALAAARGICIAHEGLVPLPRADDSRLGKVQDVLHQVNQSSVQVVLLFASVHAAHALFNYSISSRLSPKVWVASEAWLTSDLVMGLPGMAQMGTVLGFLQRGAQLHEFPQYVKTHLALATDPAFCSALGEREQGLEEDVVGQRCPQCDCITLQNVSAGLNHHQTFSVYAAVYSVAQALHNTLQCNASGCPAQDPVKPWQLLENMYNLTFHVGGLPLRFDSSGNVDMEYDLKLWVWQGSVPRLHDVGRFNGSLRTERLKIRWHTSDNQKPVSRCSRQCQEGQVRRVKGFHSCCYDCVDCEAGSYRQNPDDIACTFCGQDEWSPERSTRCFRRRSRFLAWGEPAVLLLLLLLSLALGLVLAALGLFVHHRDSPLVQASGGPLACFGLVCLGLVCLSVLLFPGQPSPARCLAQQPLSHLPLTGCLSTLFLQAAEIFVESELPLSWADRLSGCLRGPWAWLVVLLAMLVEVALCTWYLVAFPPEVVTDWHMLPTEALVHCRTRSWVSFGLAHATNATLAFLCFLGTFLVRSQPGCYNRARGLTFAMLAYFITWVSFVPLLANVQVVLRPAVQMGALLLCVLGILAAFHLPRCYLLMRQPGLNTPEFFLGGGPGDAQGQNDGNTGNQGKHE

[2] = biological target: human T1R2/T1R3 sweet taste receptor; conditions: HEK293 stably expressing T1R2/T1R3, FLIPR calcium mobilization; cited from earlier work
[3] = biological target: T2, heterodimeric receptor (T1R2/T1R3), TMD3 binding site (Homo sapiens, UniProt Q7RTX0+Q8TE23); test: Competition binding with [3H]-lactisole as radioligand; conditions: for Ki: radiolabeled ligand lactisole
T2 sequence (Q8TE23 20-839): T1 sequence (Q8TE23 20-839)
T2 sequence (Q7RTX0 21-852): T1 sequence (Q7RTX0 21-852)

[4] = biological target: T3, heterodimeric receptor (T1R2/T1R3), TMD2 binding site (Homo sapiens, UniProt Q7RTX0+Q8TE23); test: Competition binding with [3H]-Perillartine as radioligand; conditions: radioligand [3H]-Perillartine
T3 sequence (Q8TE23 20-839): T1 sequence (Q8TE23 20-839)
T3 sequence (Q7RTX0 21-852): T1 sequence (Q7RTX0 21-852)

[5] = biological target: T4, heterodimeric receptor (T1R2/T1R3), presumed VFD2 binding site (Homo sapiens, UniProt Q7RTX0+Q8TE23); test: Competition binding with [3H]-Rebaudioside B as radioligand
T4 sequence (Q8TE23 20-839): T1 sequence (Q8TE23 20-839)
T4 sequence (Q7RTX0 21-852): T1 sequence (Q7RTX0 21-852)

Ki [1]: 13600 µM | Ki ([3]; Ki (mM), TMD3 binding, Table 4): 0.33 mM | Ki ([3]; Ki): 0.334 mM | Competitive inhibition with lactisole ([3]; radioligand [3H]-lactisole): inhibition | Competitive inhibition with perillartine [4]: high levels of inhibition | Ki [5]: 63400 µM | Competitive inhibition with RebB ([5]; radioligand [3H]-Rebaudioside B): positive inhibition
Compound: COc1ccc(CCC(=O)c2c(O)cc(O[C@@H]3O[C@H](CO)[C@@H](O)[C@H](O)[C@H]3O[C@@H]3O[C@@H](C)[C@H](O)[C@@H](O)[C@H]3O)cc2O)cc1O [NHDC, Neohesperidin Dihydrochalcone]
EC50 [2]: 10.2 µM
